# Test results as given in US10975357B2, “Methods and compositions related to differentiated lung cells” (TRUSTEES OF BOSTON UNIVERSITY, priority 2017, dated 2021).
# Tests used:
# Type in all cases: cell-based, human
# [1] = tested on: NKX2-1+ lung epithelial progenitor cells; assay: SFTPCtdTomato reporter induction in day 15 NKX2-1+ progenitor outgrowth in 3D culture (flow cytometry)
# Experimental: Purification of NKX2-1+ Lung Progenitors by Cell Sorting. On day 15 of differentiation, cells were incubated at 37° C. in 0.05% trypsin-EDTA (Invitrogen) for 7-15 minutes, until they reached single cell suspension. Cells were then washed in media containing 10% fetal bovine serum (FBS, ThermoFisher), centrifuged at 300g×5 minutes, and resuspended in sort buffer containing Hank's Balanced Salt Solution (ThermoFisher), 2% FBS, 10 μM Y-27632, and 10 uM calcein blue AM (Life Technologies) for dead cell exclusion. Cells not containing the NKX2-1GFP reporter were subsequently stained with CD47-PerCPCy5.5 and CD26-PE antibodies (mouse monoclonal; Biolegend 1:200; 1×10^6 cells in 100 ul) for 30 minutes at 4° C., washed with PBS, and resuspended in sort buffer. Cells were passed through a 40 um strainer prior to sorting (Falcon). Various live cell populations indicated in the text (i.e. GFP+, GFP−, CD47hi/CD26−,CD47lo) were sorted on a high-speed cell sorter (MoFlo Legacy). Directed Differentiation of NKX2-1+ Lung Progenitor Outgrowth into iAEC2s Day 15 cells, either sorted (as described above) or unsorted (dissociated as described above), were resuspended in undiluted growth factor-reduced matrigel (Corning) at a dilution of 50-100 cells/ul, with droplets ranging in size from 20 ul in 96 well plates to 1 ml in 10 cm tissue culture-treated dishes (Corning). Cells in matrigel suspension were incubated at 37° C. for 20-30 minutes, then warm media was added to the plates. […]
# Alveolosphere Long Term Culture, Dissociation, and Differentiation. […] These spheres were analyzed as follows: Z-stack images of live alveolospheres were taken and processed on a Keyence (Osaka, Japan) BZ-X700 fluorescence microscope. […] To generate single cell suspensions, cell pellets were incubated in 0.05% trypsin and continued through the trypsin-based dissociation protocol described above, after which they could be passaged into fresh matrigel, analyzed by flow cytometry, or sorted as described above. […]
# TNFa/NFkB pathway = assay: Cytokine stimulation of PSC-derived alveolospheres, TNFa/NFkB pathway (Western blot IkB, IL8 and GM-CSF RT-qPCR); conditions: TNFa 10 ng/ml and IL1b 10 ng/ml given together
# Experimental: (§1) Where indicated in the text, outgrowth and distal/alveolar differentiation of cells after day 15 was performed in “CK+DCI” medium, consisting of cSFDM base, with 3 μM CHIR99021, 10 ng/mL rhKGF, and 50 nM dexamethasone (Sigma), 0.1 mM 8-Bromoadenosine 3′,5′-cyclic monophosphate sodium salt (Sigma) and 0.1 mM 3-Isobutyl-1-methylxanthine (IBMX) (Sigma) (DCI). Immediately after replating cells on Day 15 10 μM Y-27632 was added to the medium for 24 hours. Additional growth factors or cytokines were added or withdrawn as indicated in the text, including FGF10, TGFb, EGF, OSM (20 ng/ml), TNFa (10 ng/ml), and IL-1b (10 ng/ml) with other concentrations listed in figure legends (FIGS. 9A, 9B).
# Reverse Transcriptase Quantitative Real Time Polymerase Chain Reaction (RT-qPCR). RT-qPCR was performed as previously described (Hawkins et al. 2017,). Briefly, RNA was isolated according to manufacturer's instructions using the Qiagen miRNeasy mini kit (Qiagen, Venlo, Netherlands). cDNA was generated by reverse transcription of up to 150 ng RNA from each sample using the Applied Biosystems High-Capacity cDNA Reverse Transcription Kit. […] Relative gene expression was calculated based on the average cycle (Ct) value of the technical triplicates, normalized to 18S control, and reported as fold change (2(−ΔΔCT)), with a fold change of 1 being assigned to undifferentiated (day 0) iPSCs or ESCs. […]
# RUES2 alveolospheres = assay: CHIR addback after 1-week withdrawal in alveolospheres; conditions: CHIR withdrawn week 4-5, added back week 5-6
# Experimental: as §1
# (§2) Alveolosphere Long Term Culture, Dissociation, and Differentiation. Alveolospheres developed in 3D matrigel culture outgrowths within 3-7 days after day 15 replating, and were maintained in CK+DCI media for weeks to months, as indicated in the text. These spheres were analyzed as follows: Z-stack images of live alveolospheres were taken and processed on a Keyence (Osaka, Japan) BZ-X700 fluorescence microscope. […] To generate single cell suspensions, cell pellets were incubated in 0.05% trypsin and continued through the trypsin-based dissociation protocol described above, after which they could be passaged into fresh matrigel, analyzed by flow cytometry, or sorted as described above. […]
# [2] = tested on: BU3 NKX2-1GFP+/SFTPCtdTomato- population; assay: Late CHIR withdrawal from sorted NKX2-1GFP+/SFTPCtdTomato- population in 3D culture; conditions: CHIR withdrawn for 10 days (days 40-50), cells sorted day 38
# Experimental: as §1, §2
molecule,measurement,setting,value
"EGF: Recombinant mouse EGF (NSYPGCPSSYDGYCLNGGVCMHIESLDSYTCNCVIGYSGDRCQTRDLRWWELR; UniProt P01132 977-1029, looked up)",further SFTPC induction efficiency with addition of the factor,"[1]; factor added to differentiation media, FIG. 9B",No consistent further SFTPC induction efficiency
IL1b: Recombinant human IL1-b,"NFkB signaling (IkB protein decrease, IL8 and GM-CSF expression)",TNFa/NFkB pathway,activated NFkB signaling
TNFa,"NFkB signaling (IkB protein decrease, IL8 and GM-CSF expression)",TNFa/NFkB pathway,activated NFkB signaling
"Cc1c[nH]c(-c2cnc(NCCNc3ccc(C#N)cn3)nc2-c2ccc(Cl)cc2Cl)n1 [CHIR, CHIR99021, reference compound]",emergence of SFTPC+ cells from NKX2-1+ precursors in presence of Wnt stimulation via CHIR,[1]; 17-22 total differentiation days,2 to 7 days
same,cells with induction of the SFTPCtdTomato reporter,"[1]; sorted NKX2-1GFP+ cells, by day 21, presence of CHIR in K+DCI base media",7.17+/−0.89%
same,effect of re-exposure to CHIR after 1-week withdrawal,RUES2 alveolospheres,maintained expression of the SFTPCtdTomato reporter and increased proliferation
same,efficiency of differentiation into SFTPC+ progeny after withdrawal of CHIR,[2],68.7%
